In PubChem BioAssay (NCI):
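Where inhibition never reached the appropriate level, the endpoint shown equals the highest concentration tested. Otherwise, values were interpolated linearly from a five-concentration, 48-hour dose response in 96-well plates. Abbreviation: GI50, concentration required for 50% inhibition of growth. Definition used: TGI = concentration required for complete inhibition of growth.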

Key:
Test in all cases: NCI anticancer screen, dose series, 48 h
A498 renal = tested on: A498 renal
DU-145 prostate = tested on: DU-145 prostate
IGROV1 ovarian = tested on: IGROV1 ovarian
NCI/ADR-RES ovarian = tested on: NCI/ADR-RES ovarian
OVCAR-4 ovarian = tested on: OVCAR-4 ovarian
SK-MEL-5 melanoma = tested on: SK-MEL-5 melanoma
SK-OV-3 ovarian = tested on: SK-OV-3 ovarian
SW-620 colon = tested on: SW-620 colon
UACC-257 melanoma = tested on: UACC-257 melanoma
UACC-62 melanoma = tested on: UACC-62 melanoma

| Structure (SMILES) | TGI (A498 renal) | TGI (DU-145 prostate) | TGI (IGROV1 ovarian) | TGI (NCI/ADR-RES ovarian) | TGI (OVCAR-4 ovarian) | TGI (SK-MEL-5 melanoma) | TGI (SK-OV-3 ovarian) | TGI (SW-620 colon) | TGI (UACC-257 melanoma) | TGI (UACC-62 melanoma) | GI50 (A498 renal) | GI50 (DU-145 prostate) | GI50 (IGROV1 ovarian) | GI50 (NCI/ADR-RES ovarian) | GI50 (OVCAR-4 ovarian) | GI50 (SK-MEL-5 melanoma) | GI50 (SK-OV-3 ovarian) | GI50 (SW-620 colon) | GI50 (UACC-257 melanoma) | GI50 (UACC-62 melanoma) |
| --- | --- | --- | --- | --- | --- | --- | --- | --- | --- | --- | --- | --- | --- | --- | --- | --- | --- | --- | --- | --- |
| O=C(O)CC(Cc1ccc2c(c1)OCO2)C(=O)O (centres undefined) | > 100 µM | > 100 µM | > 100 µM | > 100 µM | > 100 µM | > 100 µM | > 100 µM | > 100 µM | > 100 µM | > 100 µM |  |  |  |  |  |  |  |  |  |  |
| N#C/C(=C\c1cn(-c2ccccc2)c2ccccc12)C(=O)O | 35 µM | > 100 µM | > 100 µM | > 100 µM | > 100 µM | > 100 µM | > 100 µM | > 100 µM | > 100 µM | 85.6 µM | 13.4 µM | 44.2 µM | 49.3 µM | 57.7 µM | 39.1 µM | 38.4 µM | 71.4 µM | 48.3 µM | > 100 µM | 23.8 µM |
| [N-]=[N+]=Nc1ncc(-c2ccc(C(F)(F)F)cc2)c(NC2CCCCCC2)n1 | > 10 µM | > 10 µM | > 10 µM | > 10 µM | > 10 µM | > 10 µM | > 10 µM | > 10 µM | > 10 µM | > 10 µM | > 10 µM | > 10 µM | > 10 µM | > 10 µM | > 10 µM | > 10 µM | > 10 µM | > 10 µM | > 10 µM | > 10 µM |
| COc1ncnc2c(NC3OC(CO)C(O)C3O)ncnc12 (centres undefined) | 1.58 µM | 10 µM | 3.82 µM | 6.2 µM | 7.08 µM | > 39.8 µM | > 27.1 µM | 13.2 µM | > 100 µM | 6.66 µM |  |  |  |  |  |  |  |  |  |  |
| O=C(Oc1ccccc1)c1cc(O)c(O)c(O)c1 | 76.1 µM | > 100 µM | > 100 µM | 56.7 µM | > 100 µM | 38.8 µM | > 100 µM | > 100 µM | > 100 µM | 56.4 µM | 5 µM | 15.7 µM | 11.6 µM | 11.4 µM | 14 µM | 11.4 µM | 9.22 µM | 14.3 µM | 35.8 µM | 8.45 µM |
| COc1cc2c(cc1OCCCCCOc1cc(-c3ccc(F)cc3)nc(C)n1)N=C[C@@H]1CCCN1C2=O | > 100 µM | > 87.4 µM | > 49.6 µM | > 100 µM | > 79.7 µM | > 26.2 µM | > 78.8 µM | > 87.1 µM | > 100 µM | > 56.2 µM | > 100 µM | > 39.8 µM | > 27.8 µM | > 100 µM | > 40.6 µM |  | > 51.6 µM | > 32.1 µM | > 100 µM | > 38.1 µM |
| COc1ccc2c(c1)[nH]c(=O)c1c3cccnc3cn21 | 4.53 µM | > 100 µM | 14.6 µM | 0.0571 µM | > 100 µM | 0.0992 µM | > 52 µM | 13.2 µM | 25.5 µM | 19.3 µM | 0.0335 µM | 0.0365 µM | 0.0627 µM | 0.0231 µM | 0.0735 µM | 0.025 µM | 0.0464 µM | 0.0327 µM | 0.677 µM | 0.0431 µM |
| CN(C)c1cccc2[nH]c(-c3[nH]ncc3Nc3ccnc(N)n3)nc12 | 0.037 µM | 1.03 µM | 0.346 µM | 1.5 µM | 0.706 µM | 0.15 µM | 2.38 µM | 1.22 µM | 0.324 µM | 0.0701 µM | 0.013 µM | 0.0175 µM | 0.0201 µM | 0.0328 µM | 0.0349 µM | 0.0295 µM | 0.073 µM | < 0.0141 µM | 0.0318 µM | 0.0136 µM |
| O=C(O)C(/C=C/c1ccco1)=N\Nc1nc(-c2ccc(Cl)cc2)cs1 | > 50 µM | > 50 µM | 29.6 µM | > 50 µM | > 50 µM | > 50 µM | > 50 µM | > 50 µM | > 50 µM | 17.7 µM | > 50 µM | 15.8 µM | 7.93 µM | 12.4 µM | 9.41 µM | 14.8 µM | 16.1 µM | 22.5 µM | 16.8 µM | 7.79 µM |
| COc1ccc(NC2=C(Sc3nc(C)cc(C)n3)C(=O)N(Cc3ccccc3)C2=O)cc1Cl | > 160 µM | > 160 µM | > 160 µM | > 160 µM | > 160 µM | > 160 µM | > 160 µM | > 160 µM | > 160 µM | > 160 µM | 62.1 µM | > 160 µM | 108 µM | > 160 µM | 107 µM | 33.9 µM | > 160 µM | > 160 µM | > 160 µM | 22.5 µM |
| Cc1sc2ncnc(Sc3nc4ccccc4[nH]3)c2c1C | 52.9 µM | 72.4 µM | > 100 µM | > 100 µM | 66.9 µM | > 100 µM | 65.6 µM | > 100 µM | 98.9 µM | > 100 µM | 12.2 µM | 20.8 µM | 33.2 µM | 29.5 µM | 20.6 µM | 22 µM | 24.3 µM | 42.3 µM | 24.7 µM | 17.3 µM |
| COC(=O)Nc1ccc2ccc3c(NC(=O)OC)ccc4ccc1c2c43 (tested in a mixture with another compound) | > 50 µM | > 50 µM | > 50 µM | 19.2 µM | > 50 µM | > 50 µM | > 50 µM | > 50 µM | > 50 µM | > 50 µM | 8.26 µM | 14.8 µM | 7.98 µM | 4.59 µM | 15.7 µM | 4.42 µM | 11.6 µM | 3.9 µM | 21.8 µM | 5.83 µM |
